Among the data in the METLIN SMRT retention time set (Domingo-Almenara et al. 2019) are RP-LC retention time values, retold here.

This data set is described as follows: gradient 5% acetonitrile 3 min, to 50% in 2 min, to 85% in 15 min, held 3 min, 100 µL/min. Conditions: column: Zorbax Extend-C18 2.1 x 50 mm; eluents: water / acetonitrile, 0.1% formic acid. The gist of the method:
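Each retention time is based on an adduct peak selected computationally and verified by manual inspection. Measurements used HPLC–quadrupole time-of-flight mass spectrometry in positive and negative ionization mode on mixtures of ~100 pure standards. Chromatography ran on a Zorbax Extend-C18 column (2.1 × 50 mm, 1.8 μm) at 100 μL/min with water and acetonitrile, each containing 0.1% formic acid, and dead and dwell volumes of 40 μL and 900 μL.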
As for `N#Cc1ccc(Cl)cc1NC(=O)C(=O)NCC(O)C1CCCCC1` (centres undefined), the RP-LC retention time came out at 825 s.

Molecule `COc1cccc(NC(=O)Cn2c(=O)c(CCC(=O)NC3CCCC3)nc3ccccc32)c1` gave an RP-LC retention time of 825 s. In the case of `Cc1nnsc1C(=O)Nc1nnc(SCC(=O)Nc2ccc(F)c(Cl)c2)s1`, the RP-LC retention time amounted to 813 s. `O=C(c1ccc(Cl)cc1)N1CCN(c2cnn3c(C4CC4)nnc3c2)CC1` showed an RP-LC retention time of 683 s. Regarding `CCc1ccc(NC(=O)c2c(C)sc3ncnc(N4CCCC4)c23)cc1`, the RP-LC retention time came to 975 s. `Cn1nccc1C(=O)N1CCCC1c1ccccc1Cl` (centres undefined) returned an RP-LC retention time of 823 s. Molecule `Cc1ccc(-n2cc(C3=CCN(CC(=O)N4CCN(c5ccccn5)CC4)CC3)cn2)cc1C` showed an RP-LC retention time of 596 s. On to `CCn1nc(CNC(=O)c2ccc3c(c2)OCO3)c2ccccc21`, for which the RP-LC retention time was 804 s. For `COc1ccc2c(c1)C1(CCN(C(=O)NC(C)(C)C)C1)C(=O)N2` (centres undefined) the value was 695 s; for `Cn1nccc1-c1cccc(-c2noc(-c3ccc(F)cc3Cl)n2)c1`, 1190 s. With `O=C(Cc1ccc(Br)cc1)Nc1cc(-c2ccsc2)no1` the figure was 983 s; with `CN1C(=O)COc2ccc(-c3csc(NC(=O)c4ccc(Cl)cc4)n3)cc21`, 1010 s. Molecule `CN1CCCc2cc(CCNC(=O)c3c(F)cccc3F)ccc21` yielded an RP-LC retention time of 614 s. With `Cc1nc(-c2cc(S(=O)(=O)Nc3ccc(Br)cc3C)c(C)s2)cs1`, the RP-LC retention time came out at 1100 s.

Turning to `O=C(Nc1ccc(F)c(Cl)c1)N1CCC(N2CCN(Cc3cccc(F)c3)C(=O)C2=O)CC1`, the RP-LC retention time is 798 s. For `Cc1nc2cc(N3CCCC(C(=O)N4CCN(c5ccccn5)CC4)C3)cnc2nc1C` (centres undefined), the RP-LC retention time came out at 581 s. Turning to `CCOC(=O)c1[nH]c(C)c(CCC(=O)N2CCC(C(=O)NCCCc3ccccc3)CC2)c1C`, the RP-LC retention time is 842 s. For `O=S(=O)(Nc1ccc2c(c1)OCCO2)c1ccc2nncn2c1` the value was 660 s; for `O=C(CC1CCOC2(CCN(Cc3cccs3)CC2)C1)NC1CC1` (centres undefined), 578 s; for `Cc1ccc(C(=O)CC2(O)C(=O)Nc3ccc(C)cc32)cc1` (centres undefined), 755 s. On to `CCN1C(=O)CCc2cc(NC(=O)Cc3ccc(F)cc3)ccc21`, for which the RP-LC retention time came out at 780 s. With `O=S(=O)(c1ccc2c(c1)CCC2)N1CCc2nc(-c3ccccc3)ncc2C1`, the RP-LC retention time is 1190 s. `Cc1noc(C)c1S(=O)(=O)N1CCC(Cc2nncn2-c2ccccc2)CC1` registered an RP-LC retention time of 780 s. For `Cc1ccc(C)c(S(=O)(=O)N2[C@H]3CC[C@@H]2c2cnc(-c4ccc(F)cc4)nc2C3)c1` the value was 1270 s. With `COc1ccccc1OCCC1CCN(S(=O)(=O)Cc2ccccc2F)C1` (centres undefined) the figure was 1030 s; with `Cc1ccc(C)c(NC(=O)c2cn(-c3cc(-c4nc(C5CC5)no4)ccn3)cn2)c1`, 1100 s. With `CCn1nc(C)c(CCNC(=O)C2CCCN(c3nn4c(=O)c5c(nc4s3)CCCC5)C2)c1C` (centres undefined), the RP-LC retention time is 634 s.

Molecule `CCOCC(=O)N1CC(F)(F)C[C@H]1c1nc(COC)no1` came in with an RP-LC retention time of 675 s. As for `Cc1ccc(NC(=O)c2nc(C)oc2C)c(F)c1`, the RP-LC retention time came to 946 s. As for `O=C(Nc1cnc(-c2cccc(Cl)c2)nc1)c1ccccc1`, the RP-LC retention time is 1070 s. The molecule `Cc1cc(-c2nnc(C3CC3)o2)c(C)n1CC(=O)NCc1ccc(Cl)cc1` gave an RP-LC retention time of 850 s.

On to `COc1cc2c(cc1OC)C(C(=O)NCc1ccc(C)o1)C1c3ccccc3CCN1C2=O` (centres undefined), for which the RP-LC retention time was 946 s. As for `Cc1cc2c(=O)n(CC(=O)NCc3ccc(F)cc3Cl)ccc2s1`, the RP-LC retention time worked out at 814 s.

With `N#Cc1ccc(C(=O)N2CCCC(COc3ccc(C(=O)NC4CC4)cc3)C2)cc1` (centres undefined), the RP-LC retention time was 757 s. Consider `Cc1nc(-c2ccc(N3CCN(C(=O)COc4ccc(F)cc4)CC3)nc2)sc1C`, for which the RP-LC retention time was 880 s. In the case of `COCCNC(=O)CCCN1C(=O)c2ccccc2Sc2ncccc21`, the RP-LC retention time came to 634 s. `O=C(CN1CCN(Cc2ccc(F)cc2)C(=O)C1=O)N1CCN(c2ccc(F)cc2)CC1` yielded an RP-LC retention time of 744 s. On to `O=C(Nc1ccc(SCc2nnc(-c3ccccc3)o2)cc1)c1cccs1`, for which the RP-LC retention time stood at 968 s.

Take `Cc1oc(-c2ccc(NC(=O)C3CCCCC3)cc2)nc1Cn1cccn1`: the RP-LC retention time worked out at 924 s. In turn, `Cc1cc(C)cc(NC(=O)C2CCCN(c3nc4ccsc4c(=O)n3Cc3ccc(F)cc3)C2)c1` (centres undefined) yielded an RP-LC retention time of 1090 s. In the case of `Cc1ccc(-c2cc3c4nnc(CCC(=O)NC5CCCCCC5)n4ccn3n2)cc1C`, the RP-LC retention time is 587 s. The molecule `COc1ccc2c(c1)C1(CCN(C(=O)Nc3ccccc3OC)C1)C(=O)N2C` (centres undefined) registered an RP-LC retention time of 808 s. Molecule `CCc1noc(NC(C)=O)c1-c1ccc(OC)c(S(=O)(=O)NCc2ccccc2)c1` returned an RP-LC retention time of 766 s. As for `CCc1ccccc1NC(=O)N(C)CC1CCOC1` (centres undefined), the RP-LC retention time amounted to 699 s. `Cc1nn(C)c(C)c1S(=O)(=O)N1CCC(n2c(C)cnc2-c2ccccc2)C1` (centres undefined) showed an RP-LC retention time of 618 s. In turn, `COc1ccc(-c2csc(C)n2)cc1S(=O)(=O)N(C)c1cccc(C)c1` yielded an RP-LC retention time of 1050 s.

As for `O=C(NCC1(c2nc(-c3ccccc3)cs2)CCOCC1)c1cccc(-c2noc(C(F)(F)F)n2)c1`, the RP-LC retention time worked out at 1310 s. With `O=C(Cn1nc(C(=O)N2CCCC2)c2ccccc21)NCCc1cccs1` the figure was 775 s; with `O=C(OCc1nc2ccccc2s1)c1ccc([N+](=O)[O-])o1`, 848 s; with `COC(=O)c1scc(-c2ccccc2)c1S(=O)(=O)N1CCC(C(N)=O)(N2CCCCC2)CC1`, 662 s. For `CCOc1ccc(-c2noc(Cn3ccn4nc(-c5ccc(Cl)cc5)cc4c3=O)n2)cc1OC`, the RP-LC retention time turned out to be 1130 s.

Regarding `Cc1cc(-c2nnc(-c3ccccc3)o2)c(C)n1CC(=O)NCc1ccc(Cl)cc1`, the RP-LC retention time worked out at 982 s.

Molecule `CCCn1cnc2cc(-c3noc(CNC(=O)Cc4ccccc4)n3)ccc21` yielded an RP-LC retention time of 659 s. In the case of `CCN(CC)CCCNC(=O)c1cccn1-c1nnc(N2CCCC2)s1`, the RP-LC retention time is 562 s. Regarding `Cc1ccccc1Cn1cc(-c2ccncc2)cc1C(=O)NC1CC1`, the RP-LC retention time was determined as 648 s. Take `CCCCN1CCN(C(=O)C2CCN(c3nnc(-c4ccc(C)cc4)o3)CC2)CC1`: the RP-LC retention time turned out to be 632 s. `O=C(NC1CC1)C1CCCN(S(=O)(=O)c2c[nH]c(C(=O)N3CCCC3)c2)C1` (centres undefined) registered an RP-LC retention time of 627 s.

`Cc1ccc(-c2csc(NC(=O)Cc3ccc(Cl)cc3)n2)cc1`: the RP-LC retention time was 1120 s.

`CCCn1cc(CCNC(=O)Nc2cccc(Cl)c2)c2cccnc21`: the RP-LC retention time amounted to 828 s.
